{
  "source": "patent US20020009713A1",
  "about": "“Methods for identifying modulators of neuronal growth” (priority 2000, published 2002)",
  "molecules": {"B1": {"name": "NGF: nerve growth factor purified from mouse salivary glands (protein, UniProt P01139 122-241, looked up)", "Beta-nerve growth factor": "SSTHPVFHMGEFSVCDSVSVWVGDKTTATDIKGKEVTVLAEVNINNSVFRQYFFETKCRASNPVESGCRGIDSKHWNSYCTTTHTFVKALTTDEKQAAWRFIRIDTACVCVLSRKATRRG"}, "B2": {"name": "BDNF: brain-derived neurotrophic factor; recombinant human BDNF (protein, UniProt P23560 19-247, looked up)", "Neurotrophic factor BDNF …": "APMKEANIRGQGGLAYPGVRTHGTLESVNGPKAGSRGLTSLADTFEHVIEELLDEDQKVRPNEENNKDADLYTSRVMLSSQVPLEPPLLFLLEEYKNYLDAANMSMRVRRHSDPARRGELSVCDSISEWVTAADKKTAVDMSGGTVTVLEKVPVSKGQLKQYFYETKCNPMGYTKEGCRGIDKRHWNSQCRTTQSYVRALTMDSKKRIGWRFIRIDTSCVCTLTIKRGR"}},
  "key": {"sympathetic neurons [1]": {"system": "sympathetic neurons", "experiment": "Activity-dependent dendrite formation, MAP2 immunocytochemistry and image analysis", "format": "cell-based, rat", "details": "for activity-dependent dendrite formation (MAP2): NGF+KCl, 10 um KN62, 75 um PD98059", "experimental": "Dendritic growth can be measured as follows. Ninty-six-well plates are coated for […] with rat tail collagen (prepared in a dilution of 1% glacial acetic acid). After one hour, excess collagen is aspirated and allow to dry completely. SCG neurons are dissected, triturated and plated. Cells may also be plated onto 8-well chamber slides. Cells are fed after about three days and, after about five days, are switched to either 50 mM KCl or 10 ng/ml NGF+50 mM KCl for about three additional days. Neurons are washed briefly with PBS and then fixed for 10 minutes with 4% formaldehyde in PBS (freshly prepared). Excess fixative is removed by 3×5 min washes with PBS. Cells are stained for one hour at room temperature with the following antibodies with 3×5 min PBS washes after each incubation: primary antibody—mouse monoclonal IgG1 anti high molecular weight MAP2 (clone AP20, from Sigma), secondary antibody—donkey anti mouse CY3, minimum cross to mouse and rabbit (Jackson Immunochemicals). Cell are mounted and at least three fields of view are captured using an upright fluorescence microscope using 530 excitation/580 emission filters. For each individual neuron in a given field (minimum 250 neurons total), the distance of MAP2 positive staining from the perimeter of the cell body is measured. These measurements are performed and tabulated using NIH image. The tabulated data are then expressed as a population histogram, binning all the measured lengths into 2 μm bins. This analysis gives an overall measure of the extent of dendritic differentiation in the population.\nNeuronal depolarization causes dendrite formation in cultured sympathetic neurons, and NGF enhances this dendritogenesis. FIGS. 19A-19C, 20A, 20B show immunocytochemical analysis of sympathetic neurons cultured in the presence of NGF, switched to 10 ng/ml NGF, 50 mM KCl, or 10 ng/ml NGF+50 mM KCl for two days, and then stained for the dendrite-specific protein MAP2. FIGS. 20A and 20B are high magnification views of fields similar to those shown at lower-magnification in FIGS. 19A and 19C, respectively. The MAP2-immunoreactive processes show morphology characteristic of dendrites. The amount of dendritic formation could be readily quantified.\n(§1) Inhibition of either CamKII or MEK is sufficient to inhibit activitydependent dendrite formation. Immunocytochemical analysis for MAP2 on sympathetic neurons cultured in the presence of NGF+KCl with or without 10 um KN62, 75 um PD98059, 100 nM H-89 or 10 uM forskolin. […] In this study, microtubule stability was determined in sympathetic neurons maintained in NGF or NGF+KCl, and treated with selective pharmacological inhibitors."}, "ERK, Akt, CamKII": {"system": "ERK, Akt, CamKII", "experiment": "Check of inhibitor selectivity for ERK, Akt and CamKII pathways", "format": "cell-based"}, "sympathetic neurons [2]": {"system": "sympathetic neurons", "experiment": "Western blot / biochemical analysis of MAP2, phosphorylated-CamKII and phosphorylated-ERKs", "format": "cell-based, rat", "details": "for MAP2 levels: FIG. 27, NGF, KCl and kinase inhibitors", "experimental": "(§2) Microtubules were isolated from cultured sympathetic neurons, and the relative amount of MAP2 present per microgram tubulin was determined using quantitative dot-blot analysis. […] Depolarization enhances MAP2 levels and CamKII phosphorylation in sympathetic neurons. We performed western blot analysis of sympathetic neurons treated with 10 ng/ml NGF, 50 mM KCl, or NGF+KCl. Lysates containing equal amounts of protein were separated by SDS-PAGE, transferred to nitrocellulose, and then probed for MAP2, phosphorylated-CamKII, phosphorylated-ERKs, or total ERK protein. KCl increases the amount of MAP2 present in sympathetic neurons, and enhances CamKII phosphorylation."}, "sympathetic neurons [3]": {"system": "sympathetic neurons", "experiment": "Quantitative dot-blot of MAP2 association with microtubules and microtubule stability", "format": "cell-based, rat", "details": "for amount of MAP2 bound to microtubules: two days", "experimental": "FIG. 22 is a schematic illustration showing immuno-dot blot analysis of MAP2 association and tubulin dynamics in SCG neurons. […]\nas §2, §1"}, "rat sympathetic neurons [4]": {"system": "rat sympathetic neurons", "experiment": "MTT survival assay of cultured sympathetic neurons", "format": "cell-based", "experimental": "Neurons were plated at low density (approximately one ganglion/well) in Nunclon™ 4-well culture dishes (Gibco BRL, Burlington, Ontario, Canada), coated with either rat tail collagen or poly-D-lysine and laminin (both from Collaborative Biomedical Products, Bedford, Mass.). Culture medium was UltraCulture (BioWhittaker, Walkersville, Md.), supplemented with 3% rat serum (Harlan Bioproducts, Madison, Wis.), 2 mM glutamine, 100 U/ml penicillin, 100 μg/ml streptomycin (all from BioWhittaker), and for the first two days, 7 μM cytosine arabinoside (Sigma-Aldrich Canada Ltd., Oakville, Ontario, Canada).\n(§3) NGF-dependent neurons were selected by culturing sympathetic neurons for five days in the presence of 50 ng/ml NGF. Neurons were washed three times for one hour each in neurotrophin-free media, and were then fed with media containing 10 ng/ml NGF alone, or various concentrations of NGF plus either 100 ng/ml BDNF, 10 μg/ml αBDNF, or a 1:100 dilution of antiserum containing the p75^NTR antibody, REX (Weskamp and Reichardt, Neuron 6: 649-663, 1991). Each condition was repeated in triplicate, and analysis of survival was performed 48 hours later by using nonradioactive cell proliferation (MTT) assays (Celltitre 96; Promega; Belliveau et al., J. Cell Biol. 136:375-388, 1997). Specifically, 50 μl of the MTT reagent was added to 500 μl media in each well, and incubated for two hours at 37° C. After aspiration of the MTT containing media, 100 μl of a 0.065N HCl/isopropanol mixture was added to each well to lyse the cells, and colorimetric analysis was performed using an ELISA reader. For rat sympathetic neurons, 10 ng/ml NGF represents 100% survival, therefore all other values were considered to be relative to 10 ng/ml NGF. For mouse neurons, 7.5 ng/ml NGF represents 100% survival, and was thus considered to be the 100% survival threshold for neuritogenesis experiments."}, "[5]": {"system": "mouse sympathetic neurons", "experiment": "MTT survival assay of mouse sympathetic neurons", "format": "cell-based", "experimental": "CD-1 mouse sympathetic neurons were cultured by a modification of the method used to prepare rat neurons. Mouse cultures were essentially prepared the same way, but were dissociated in UltraCulture medium rather than Hanks' balanced saline solution. 3% fetal bovine serum (Gibco) was used instead of rat serum, and 3.5 μM cytosine arabinoside was added to the culture medium on day one post-plating.\nas §3, with “Each condition was repeated in triplicate, and analysis of survival was performed 48 hours later by using nonradioactive cell proliferation (MTT) assays (Celltitre 96; Promega; Belliveau et al., J.” left out, “For mouse neurons, 7.5 ng/ml NGF represents 100% survival, and was thus considered to be the 100% survival threshold for neuritogenesis experiments.” left out"}, "rat sympathetic neurons [6]": {"system": "rat sympathetic neurons", "experiment": "In vitro neuritogenesis assay (neuritic process density)", "format": "cell-based", "details": "100 ng/ml BDNF in 10 ng/ml NGF, two days, six experiments", "experimental": "Regulation of neuronal growth was analyzed by an in vitro neuritogenesis assay. Postnatal day one rat sympathetic neurons were cultured in 50 ng/ml NGF for two to three days in order to upregulate p75^NTR, whose increased expression in response to NGF occurs independently of neuronal survival. Following a one hour wash in neurotrophin-free medium, cultures were maintained for an additional two days in 10 ng/ml NGF plus or minus 100 ng/ml BDNF. Fields in sister cultures containing a similar number of neuronal cell bodies were then photographed, and neuritic process density was determined as described below. […]\nQuantitative analysis was performed by using common statistics applied to random sets of lines and determining the number of intersection points per unit area. […] Low density fields were photographed, and the number of visible intersections and bifurcations of cell processes per unit area was considered to be a quantitative measure of process density. Since the number of neurites is a direct function of the number of neurons, however, the number of intersections and bifurcations counted per unit area was normalized to the number of cell bodies in that same area of interest. […] Results are expressed as the mean density plus or minus the standard error of the mean."}, "TrkB": {"system": "TrkB", "experiment": "BDNF neutralization: TrkB tyrosine phosphorylation in TrkB-expressing NIH-3T3 cells", "format": "cell-based", "details": "50 ng/ml BDNF, five minutes", "experimental": "To test the capacity of anti-BDNF to neutralize BDNF, TrkB-expressing NIH-3T3 cells were cultured in Dulbecco's modified Eagle medium. Briefly, cells were washed twice and incubated for one hour at 37° C. in buffer, followed by a 30 minute wash at 37° C. in a phosphate-free buffer. Treatment consisted of incubating cells for five minutes with either 50 ng/ml BDNF (Promega) or with BDNF preabsorbed for four hours at 4° C. with increasing concentrations of the BDNF antibody (5-40 μg/ml). In addition, TrkB-3T3 cells were treated with medium only, or medium plus 40 μg/ml nonimmune chicken IgY. Following these treatments, cells were lysed, immunoprecipitated with anti-pan Trk (Hempstead et al., Neuron 9:883-896, 1992), and the immunoprecipitates analyzed for TrkB activation by Western blot analysis with phosphotyrosine antibody 4G10 (Upstate Biotechnology Inc., Lake Placid, N.Y.)."}, "[7]": {"system": "murine sympathetic neurons", "experiment": "Neuritogenesis assay in wild type and p75NTR-/- murine sympathetic neurons", "format": "cell-based, mouse", "details": "7.5 ng/ml NGF plus 100 ng/ml BDNF"}, "[8]": {"details": "10 ng/ml NGF added to 50 mM KCl"}},
  "data": [
    {"molecule": "COc1cccc(-c2cc(=O)c3ccccc3o2)c1N", "note": "[PD98059]", "values": [
      {"measurement": "activity-dependent dendrite formation (MAP2)", "setting": "sympathetic neurons [1]", "value": "completely abolished"},
      {"measurement": "CamKII activity", "setting": "ERK, Akt, CamKII", "value": "does not affect"},
      {"measurement": "MAP2 levels", "setting": "sympathetic neurons [2]", "value": "reduce"}
    ]},
    {"molecule": "CN([C@@H](Cc1ccc(OS(=O)(=O)c2cccc3cnccc23)cc1)C(=O)N1CCN(c2ccccc2)CC1)S(=O)(=O)c1cccc2cnccc12", "note": "[KN-62]", "values": [
      {"measurement": "KCl-induced increase in microtubule stability", "setting": "sympathetic neurons [3]; neurons maintained in NGF or NGF+KCl", "value": "completely inhibit"},
      {"measurement": "activity-dependent dendrite formation (MAP2)", "setting": "sympathetic neurons [1]", "value": "completely abolished"},
      {"measurement": "ERK or Akt activation", "setting": "ERK, Akt, CamKII", "value": "do not affect"},
      {"measurement": "MAP2 levels", "setting": "sympathetic neurons [2]", "value": "reduce"},
      {"measurement": "survival of sympathetic neurons (MTT)", "setting": "rat sympathetic neurons [4]; cultured in NGF or NGF+KCl", "value": "None of these compounds perturbs"},
      {"measurement": "survival of sympathetic neurons (MTT)", "setting": "rat sympathetic neurons [4]; cultured only in 50 mM KCl", "value": "dramatically reduces"}
    ]},
    {"molecule": "O=S(=O)(NCCNC/C=C/c1ccc(Br)cc1)c1cccc2cnccc12", "note": "[H-89]", "values": [
      {"measurement": "survival of sympathetic neurons (MTT)", "setting": "rat sympathetic neurons [4]; cultured in NGF or NGF+KCl", "value": "None of these compounds perturbs"}
    ]},
    {"molecule": "[Cl-].[K+]", "note": "[KCl]", "values": [
      {"measurement": "amount of MAP2 bound to microtubules", "setting": "sympathetic neurons [3]; 50 mM KCl", "value": "greatly enhances"},
      {"measurement": "CamKII phosphorylation", "setting": "sympathetic neurons [2]; 50 mM KCl", "value": "enhances"},
      {"measurement": "amount of MAP2 present in sympathetic neurons", "setting": "sympathetic neurons [2]; 50 mM KCl", "value": "increases"}
    ]},
    {"molecule": "B1", "values": [
      {"measurement": "amount of MAP2 bound to microtubules", "setting": "sympathetic neurons [3]; [8]", "value": "enhances this effect to some degree"},
      {"measurement": "KCl-dependent dendritic growth", "setting": "sympathetic neurons [1]; [8]", "value": "greatly enhances"},
      {"measurement": "dendritic growth (MAP2-positive dendrite length)", "setting": "sympathetic neurons [1]; 10 ng/ml NGF on its own", "value": "little ability to cause dendritic growth"},
      {"measurement": "ERK phosphorylation", "setting": "sympathetic neurons [2]; 10 ng/ml NGF compared with 50 mM KCl", "value": "more potent stimulator"},
      {"measurement": "mouse sympathetic neuron survival (MTT)", "setting": "[5]; 5, 7.5 and 10 ng/ml NGF, three days", "value": "maximal"}
    ]},
    {"molecule": "B2", "values": [
      {"measurement": "average decrease of process network density", "setting": "rat sympathetic neurons [6]", "value": 40, "unit": "%"},
      {"measurement": "mouse sympathetic neuron survival (MTT)", "setting": "[5]; 7.5 or 10 ng/ml NGF plus 100 ng/ml BDNF", "value": "did not affect"},
      {"measurement": "tyrosine phosphorylation of TrkB", "setting": "TrkB", "value": "robust increase"},
      {"measurement": "sympathetic neuron survival (MTT)", "setting": "rat sympathetic neurons [4]; 100 ng/ml BDNF in 10 ng/ml NGF, two days", "value": "no effect"},
      {"measurement": "effect on growth", "setting": "[7]; p75NTR-/- neurons", "value": "no effect"},
      {"measurement": "average decrease of neuronal growth", "setting": "[7]; wild type mouse cultures", "value": 35, "unit": "%"}
    ]}
  ]
}
